30 compounds from patent US12162888B2, “Carboxamides as ubiquitin-specific protease inhibitors” (Valo Early Discovery, Inc., priority 2018, dated 2024) can be followed below.

In the first test the target is T1, USP25 (USP25-His6, Boston Biochem E-546) (Homo sapiens, UniProt Q9UHP3).
T1 construct: His6 (C); purchased Boston Biochem E-546
T1 sequence (Q9UHP3 1-1055): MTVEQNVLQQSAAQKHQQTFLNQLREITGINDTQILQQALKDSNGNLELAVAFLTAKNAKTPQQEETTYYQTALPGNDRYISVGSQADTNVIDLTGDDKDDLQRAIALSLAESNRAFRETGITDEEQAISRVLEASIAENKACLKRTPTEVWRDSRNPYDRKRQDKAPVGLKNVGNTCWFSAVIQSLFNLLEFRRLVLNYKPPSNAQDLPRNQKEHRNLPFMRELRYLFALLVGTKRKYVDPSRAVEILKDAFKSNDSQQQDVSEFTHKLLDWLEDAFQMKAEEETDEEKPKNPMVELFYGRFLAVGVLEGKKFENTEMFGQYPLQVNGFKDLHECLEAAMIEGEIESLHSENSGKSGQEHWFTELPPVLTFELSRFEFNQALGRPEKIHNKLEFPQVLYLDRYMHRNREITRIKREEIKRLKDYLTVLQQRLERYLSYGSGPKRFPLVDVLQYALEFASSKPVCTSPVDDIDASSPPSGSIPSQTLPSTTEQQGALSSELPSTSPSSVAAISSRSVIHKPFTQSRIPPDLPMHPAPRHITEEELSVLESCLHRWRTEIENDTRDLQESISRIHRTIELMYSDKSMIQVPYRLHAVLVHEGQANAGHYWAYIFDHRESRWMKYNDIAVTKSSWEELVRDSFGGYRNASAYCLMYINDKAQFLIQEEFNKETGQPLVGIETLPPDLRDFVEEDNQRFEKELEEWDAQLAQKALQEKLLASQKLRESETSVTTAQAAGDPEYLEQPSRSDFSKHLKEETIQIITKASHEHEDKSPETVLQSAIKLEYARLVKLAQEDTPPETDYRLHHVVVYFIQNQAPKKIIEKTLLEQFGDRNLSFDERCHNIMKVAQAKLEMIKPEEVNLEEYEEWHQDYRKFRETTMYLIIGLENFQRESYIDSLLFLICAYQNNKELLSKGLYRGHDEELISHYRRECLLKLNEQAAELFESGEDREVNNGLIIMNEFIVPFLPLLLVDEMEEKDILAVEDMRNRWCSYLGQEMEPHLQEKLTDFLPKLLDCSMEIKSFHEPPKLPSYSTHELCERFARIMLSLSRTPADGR
Kind of test: Ubiquitin-Rhodamine 110 Assay for USP25 Activity, Example A-3. Format: biochemical. The note with it: Ubiquitin-Rhodamine 110 assay, Example A-3; read-out: USP25 A-3 IC50 range. The procedure, abridged: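 USP25-His6 ([…] final as stated) preincubated 30 min with compound (10-point, 25 μM to 1.3 nM), then Ub-Rh110 at 25 nM (<<Km) added in pH 8.0 Tris buffer with BME, BGG and Triton X-100. Reaction stopped after 45 min at room temperature with 10 mM citric acid; fluorescence read at 485/535 nm.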
For the compound `Cc1ccc2c(N)c(C(=O)N[C@H]3CCc4nc(N5C[C@@H](N)[C@]6(CCOC6)C5)ccc4C3)sc2n1` [Example 438, 3-amino-N-[(6S)-2-[(5S, 9S)-9-amino-2-oxa-7-azaspiro[4.4]nonan-7-yl]-5,6,7,8-tetrahydroquinolin-6-yl]-6-methylthieno[2,3-b]pyridine-2-carboxamide], the IC50 is > 2000 nM. For the compound `COC[C@@]1(C)CN(c2ccc3c(n2)CC[C@H](NC(=O)c2sc4nc(C)ccc4c2N)C3)C[C@H]1N` [Example 343, 3-amino-N-[(6S)-2-[(3S,4S)-4-amino-3-(methoxymethyl)-3-methylpyrrolidin-1-yl]-5,6,7,8-tetrahydroquinolin-6-yl]-6-methylthieno[2,3-b]pyridine-2-carboxamide], the IC50 lay in the range of 200 to 2000 nM. Take `Cc1cnc2c(N)c(C(=O)N[C@@H]3CCc4cc(N5CCNCC5)cc(F)c4C3)sc2n1` (single isomer, unassigned) [Example 11-37]: the IC50 is > 2000 nM. Consider `Cc1ccc2c(N)c(C(=O)N[C@H]3COc4cc(N5CCNCC5)ccc4[C@@H]3C)sc2n1` (single isomer, unassigned) [Example 11-16], for which the IC50 is > 2000 nM.

With `Cc1ccc2c(N)c(C(=O)N[C@@H]3CCc4nc(N5C[C@H](CF)[C@H](N)C5)ncc4C3)sc2n1` [Example 446, 3-amino-N-[(6R)-2-[(3S,4S)-3-amino-4-(fluoromethyl)pyrrolidin-1-yl]-5,6,7,8-tetrahydroquinazolin-6-yl]-6-methylthieno[2,3-b]pyridine-2-carboxamide], the IC50 was > 2000 nM. Regarding `CCn1ccc2cc(C(=O)N[C@H]3CCc4nc(N5C[C@H](COC)[C@H](N)C5)ccc4C3)cnc21` (single isomer, unassigned) [Example 401], the IC50 is > 2000 nM. On to `Cc1ccc2c(N)c(C(=O)N[C@H]3COc4cc(N5C[C@H](CF)[C@H](N)C5)ccc4C3)sc2n1` (single isomer, unassigned) [Example 424], for which the IC50 was 200 to 2000 nM. `Cc1cnc2c(N)c(C(=O)N[C@H]3CCc4cc(N5C[C@H]6C[C@@H]5CN6)ccc4C3)sc2n1` (single isomer, unassigned) [Example 11-31]: the IC50 lay within 200 to 2000 nM.

With `Cc1nc2sc(C(=O)N[C@H]3CCc4c(C#N)c(N5CC6CCC(C5)N6)cc(F)c4C3)c(N)c2s1` (single isomer, unassigned) [Example 14-21], the IC50 was 50 to 200 nM. With `[2H]C1([2H])c2c(F)cc(N3CCNCC3)cc2OC[C@@H]1NC(=O)c1sc2nc(C)ccc2c1N` (single isomer, unassigned) [Example 33-1], the IC50 is 200 to 2000 nM.

With `Cc1cnc2c(N)c(C(=O)N[C@@H]3CCc4cc(N5CCNCC5)ccc4C3)sc2n1` (single isomer, unassigned) [Example 11-20], the IC50 is > 2000 nM.

On to `Cc1ccc2c(N)c(C(=O)N[C@H]3CCc4nc(N5C[C@H](N)[C@@]6(CCOC6)C5)ccc4C3)sc2n1` [Example 437, 3-amino-N-[(6S)-2-[(5R,9R)-9-amino-2-oxa-7-azaspiro[4.4]nonan-7-yl]-5,6,7,8-tetrahydroquinolin-6-yl]-6-methylthieno[2,3-b]pyridine-2-carboxamide], for which the IC50 is > 2000 nM. On the same count and under the same terms, under `Cc1cnc2c(N)c(C(=O)N[C@H]3CCc4c(C#N)c(N5CC6CCC(C5)N6)cc(F)c4C3)sc2n1` (single isomer, unassigned) [Example 14-19] stands 50 to 200 nM. Same read-out and setting: under `CCn1ccc2cc(C(=O)N[C@H]3CCc4nc(N5C[C@@H](COC)[C@@H](N)C5)ccc4C3)cnc21` (single isomer, unassigned) [Example 400] stands > 2000 nM; under `Cc1cnc2c(N)c(C(=O)N[C@@H]3CCc4c(ccc(N5CCNCC5)c4F)C3)sc2n1` (single isomer, unassigned) [Example 21-9], 200 to 2000 nM. For `CO[C@H]1CN(c2cc(F)c3c(c2C#N)CC[C@H](NC(=O)c2sc4nc(C)ccc4c2N)C3)C[C@@H]1N` (single isomer, unassigned) [Example 14-23], the IC50 is 200 to 2000 nM.

Turning to `Cc1nc2sc(C(=O)N[C@H]3CCc4c(C#N)c(N5CCNCC5)cc(F)c4C3)c(N)c2s1` (single isomer, unassigned) [Example 14-14], the IC50 lay within 200 to 2000 nM.

As for `Cc1ccc2c(N)c(C(=O)N[C@H]3CCc4c(C#N)c(N5CC6CCC(C5)N6)cc(F)c4C3)sc2n1` (single isomer, unassigned) [Example 14-17], the IC50 fell in the range of 1 to 50 nM.

Consider `Cc1ccc2c(N)c(C(=O)N[C@@H]3CCc4cc(N5CCNCC5)ccc4C3)sc2n1` (single isomer, unassigned) [Example 11-22], for which the IC50 was 200 to 2000 nM.

In the case of `Cc1cnc2c(N)c(C(=O)N[C@H]3CCc4cc(N5CCNCC5)c(F)cc4C3)sc2n1` (single isomer, unassigned) [Example 21-12], the IC50 lay in the range of 200 to 2000 nM. The same measure, in the same setting: under `Cc1cnc2c(N)c(C(=O)N[C@@H]3CCc4cc(N5CCNCC5)c(F)cc4C3)sc2n1` (single isomer, unassigned) [Example 21-11] stands > 2000 nM; under `Cc1ccc2c(N)c(C(=O)N[C@H]3CCc4c(C#N)c(N5CCNCC5)cc(F)c4C3)sc2n1` (single isomer, unassigned) [Example 14-10], 200 to 2000 nM.

Still in this test, the particulars now being: biochemical IC50 range, Ubiquitin-Rhodamine 110 assay, Example A-3; read-out: USP25 A-3.
For `Cc1ccc2c(N)c(C(=O)N[C@H]3CCc4c(F)c(N5CC6CCC(C5)N6)cc(F)c4C3)sc2n1` (single isomer, unassigned) [Example 603], the IC50 was 1 to 50 nM. On the same count and under the same terms, under `O=C(N[C@H]1COc2cc(N3CCNCC3)ccc2C1)c1ccc(NCc2cccc3cn[nH]c23)nc1` [Example 698, 6-{[(1H-indazol-7-yl)methyl]amino}-N-[(3R)-7-(piperazin-1-yl)-3,4-dihydro-2H-1-benzopyran-3-yl]pyridine-3-carboxamide] stands 200 to 2000 nM; under `Cc1ccc2c(N)c(C(=O)N[C@H]3COc4cc(N5C[C@H](N)[C@](C)(CF)C5)ccc4C3)sc2n1` [Example 658, 3-amino-N-[(3R)-7-[(3R,4R)-4-amino-3-(fluoromethyl)-3-methylpyrrolidin-1-yl]-3,4-dihydro-2H-1-benzopyran-3-yl]-6-methylthieno[2,3-b]pyridine-2-carboxamide], 50 to 200 nM. The same measure, in the same setting: under `COC1CN(c2ccc3c(c2)CC[C@H](NC(=O)c2sc4nc(C)cnc4c2N)C3)CC1N` (stereo in doubt) [Example 130, 7-amino-N-[(2S)-6-[(3S,4S)-3-amino-4-methoxypyrrolidin-1-yl]-1,2,3,4-tetrahydronaphthalen-2-yl]-3-methylthieno[2,3-b]pyrazine-6-carboxamide] stands 200 to 2000 nM; under `Cc1ccc2c(N)c(C(=O)N[C@H]3COc4cc(N5C[C@H](N)[C@]6(CCOC6)C5)ccc4C3)sc2n1` [Example 656, 3-amino-N-[(3R)-7-[(5S,9R)-9-amino-2-oxa-7-azaspiro[4.4]nonan-7-yl]-3,4-dihydro-2H-1-benzopyran-3-yl]-6-methylthieno[2,3-b]pyridine-2-carboxamide], 200 to 2000 nM; under `O=C(N[C@H]1COc2cc(N3CCNCC3)ccc2C1)c1ccc(NCc2cccc(Cl)c2Cl)nc1` [Example 699, 6-{[(2,3-dichlorophenyl)methyl]amino}-N-[(3R)-7-(piperazin-1-yl)-3,4-dihydro-2H-1-benzopyran-3-yl]pyridine-3-carboxamide], 1 to 50 nM.

As for `CN[C@H]1CN(c2ccc3c(c2)OC[C@H](NC(=O)c2sc4nc(C)ccc4c2N)C3)C[C@@H]1CF` [Example 662, 3-amino-N-[(3R)-7-[(3S,4R)-3-(fluoromethyl)-4-(methylamino)pyrrolidin-1-yl]-3,4-dihydro-2H-1-benzopyran-3-yl]-6-methylthieno[2,3-b]pyridine-2-carboxamide], the IC50 is 1 to 50 nM.

With `CO[C@@H]1CN(c2ccc3c(c2)OC[C@H](NC(=O)c2sc4nc(C)cnc4c2N)C3)C[C@@H]1N` [Example 147, 7-amino-N-[(3R)-7-[(3S,4R)-3-amino-4-methoxypyrrolidin-1-yl]-3,4-dihydro-2H-1-benzopyran-3-yl]-3-methylthieno[2,3-b]pyrazine-6-carboxamide], the IC50 is 200 to 2000 nM.
